Assay results from ChEMBL document CHEMBL4706653, “Ultra-short lipopeptides against gram-positive bacteria while alleviating antimicrobial resistance” (Eur J Med Chem, 2021).
In brackets after ≈: the same amount, converted by molar mass. Residues, ends and D or L forms follow the SMILES beside them. *: point of attachment. Stearoyl = CCCCCCCCCCCCCCCCCC(=O)*; Palmitoyl = CCCCCCCCCCCCCCCC(=O)*; Myristoyl = CCCCCCCCCCCCCC(=O)*; Lauroyl = CCCCCCCCCCCC(=O)*; Decanoyl = CCCCCCCCCC(=O)*; Octanoyl = CCCCCCCC(=O)*

Assays:
Staphylococcus aureus [1] = test: Antimicrobial activity against Staphylococcus aureus ATCC 29213 after 18 hrs by broth microdilution method; assay type: functional
Staphylococcus aureus [2] = test: Antimicrobial activity against methicillin-resistant Staphylococcus aureus 113 after 18 hrs by broth microdilution method; assay type: functional
[3] = test system: Staphylococcus epidermidis; test: Antimicrobial activity against Staphylococcus epidermidis ATCC 12228 after 18 hrs by broth microdilution method; assay type: functional
Staphylococcus aureus [4] = test: Antimicrobial activity against methicillin-resistant Staphylococcus aureus 75 after 18 hrs by broth microdilution method; assay type: functional
Bacillus subtilis = test: Antimicrobial activity against Bacillus subtilis ATCC 23857 after 18 hrs by broth microdilution method; assay type: functional
Staphylococcus aureus [5] = test: Antimicrobial activity against Staphylococcus aureus ATCC 25923 after 18 hrs by broth microdilution method; assay type: functional
[6] = Therapeutic index, ratio of MHC for mouse RBC to geometric mean of peptide MIC for Staphylococcus epidermidis ATCC 12228; assay type: toxicity; conditions: pooled result: one value given for 6 cell lines, strains, targets or settings, read-out: TI
Erythrocyte = test: Hemolytic activity against mouse erythrocytes measured after 1 hr; assay type: ADME, cell-based

`CN[C@H](CC(C)C)C(=O)N[C@H]1C(=O)N[C@@H](CC(N)=O)C(=O)N[C@H]2C(=O)N[C@H]3C(=O)N[C@H](C(=O)N[C@H](C(=O)O)c4cc(O)cc(O)c4-c4cc3ccc4O)[C@H](O)c3ccc(c(Cl)c3)Oc3cc2cc(c3O[C@@H]2O[C@H](CO)[C@@H](O)[C@H](O)[C@H]2O[C@H]2C[C@](C)(N)[C@H](O)[C@H](C)O2)Oc2ccc(cc2Cl)[C@H]1O` [VANCOMYCIN] gave an MIC (Staphylococcus aureus [1]) of under 1 µM, an MIC (Staphylococcus aureus [2]) of under 1 µM and an MIC [3] of under 1 µM. It also gave an MIC (Staphylococcus aureus [4]) of under 1 µM, an MIC (Bacillus subtilis) of under 1 µM and an MIC (Staphylococcus aureus [5]) of under 1 µM.
With `CCCCCCCCCCCCCCCC(=O)N[C@@H](CCCNC(=N)N)C(=O)N[C@@H](Cc1c[nH]c2ccccc12)C(=O)N[C@@H](Cc1c[nH]c2ccccc12)C(N)=O` (Palmitoyl-Arg-Trp-Trp-NH2) the MIC (Staphylococcus aureus [1]) was 32 µM (≈ 25.1 µg/mL), the MIC (Staphylococcus aureus [2]) was 8 µM (≈ 6.27 µg/mL) and the MIC [3] was 16 µM (≈ 12.5 µg/mL). For the same compound, the MIC (Staphylococcus aureus [4]) was 32 µM (≈ 25.1 µg/mL), the selectivity ratio [6] was 18.3 and the MIC (Bacillus subtilis) was 64 µM (≈ 50.2 µg/mL). The MHC10 (Erythrocyte) was over 256 µM and the MIC (Staphylococcus aureus [5]) was 16 µM (≈ 12.5 µg/mL).
`CCCCCCCCCCCCCCCC(=O)N[C@@H](CCCNC(=N)N)C(=O)N[C@@H](CCCNC(=N)N)C(=O)N[C@@H](Cc1c[nH]c2ccccc12)C(N)=O` (Palmitoyl-Arg-Arg-Trp-NH2) showed an MIC (Staphylococcus aureus [1]) of 8 µM (≈ 6.03 µg/mL), an MIC (Staphylococcus aureus [2]) of 2 µM (≈ 1.51 µg/mL) and an MIC [3] of 8 µM (≈ 6.03 µg/mL). It also gave an MIC (Staphylococcus aureus [4]) of 8 µM (≈ 6.03 µg/mL), a selectivity ratio [6] of 5.05 and an MIC (Bacillus subtilis) of 4 µM (≈ 3.02 µg/mL). For the same compound, the MHC10 (Erythrocyte) was 32 µM and the MIC (Staphylococcus aureus [5]) was 8 µM (≈ 6.03 µg/mL).
In the case of `CCCCCCCCCC(=O)N[C@@H](Cc1c[nH]c2ccccc12)C(=O)N[C@@H](CCCNC(=N)N)C(=O)N[C@@H](CCCNC(=N)N)C(N)=O` (Decanoyl-Trp-Arg-Arg-NH2), the MIC (Staphylococcus aureus [1]) is reported as 16 µM (≈ 10.7 µg/mL), the MIC (Staphylococcus aureus [2]) is reported as 16 µM (≈ 10.7 µg/mL) and the MIC [3] is reported as 8 µM (≈ 5.36 µg/mL). For the same compound, the MIC (Staphylococcus aureus [4]) was 16 µM (≈ 10.7 µg/mL), the selectivity ratio [6] was 21.3 and the MIC (Bacillus subtilis) was 8 µM (≈ 5.36 µg/mL). For the same compound, the MHC10 (Erythrocyte) was 256 µM and the MIC (Staphylococcus aureus [5]) was 8 µM (≈ 5.36 µg/mL).
With `CCCCCCCCCCCCCCCCCC(=O)N[C@@H](Cc1c[nH]c2ccccc12)C(=O)N[C@@H](CCCNC(=N)N)C(=O)N[C@@H](CCCNC(=N)N)C(N)=O` (Stearoyl-Trp-Arg-Arg-NH2) the MIC (Staphylococcus aureus [1]) was 32 µM (≈ 25 µg/mL), the MIC (Staphylococcus aureus [2]) was 16 µM (≈ 12.5 µg/mL) and the MIC [3] was 8 µM (≈ 6.26 µg/mL). For the same compound, the MIC (Staphylococcus aureus [4]) was 8 µM (≈ 6.26 µg/mL), the selectivity ratio [6] was 2 and the MIC (Bacillus subtilis) was 16 µM (≈ 12.5 µg/mL). It also gave an MHC10 (Erythrocyte) of 32 µM and an MIC (Staphylococcus aureus [5]) of 16 µM (≈ 12.5 µg/mL).
For `CCCCCCCCCCCC(=O)N[C@@H](CCCNC(=N)N)C(=O)N[C@@H](CCCNC(=N)N)C(=O)N[C@@H](CCCNC(=N)N)C(N)=O` (Lauroyl-Arg-Arg-Arg-NH2), the MIC (Staphylococcus aureus [1]) was 16 µM (≈ 10.7 µg/mL), the MIC (Staphylococcus aureus [2]) was 16 µM (≈ 10.7 µg/mL) and the MIC [3] was 16 µM (≈ 10.7 µg/mL). For the same compound, the MIC (Staphylococcus aureus [4]) was 32 µM (≈ 21.4 µg/mL), the selectivity ratio [6] was 25.6 and the MIC (Bacillus subtilis) was 8 µM (≈ 5.34 µg/mL). The MHC10 (Erythrocyte) was over 256 µM and the MIC (Staphylococcus aureus [5]) was 32 µM (≈ 21.4 µg/mL).
For `CCCCCCCCCCCCCCCCCC(=O)N[C@@H](CCCNC(=N)N)C(=O)N[C@@H](Cc1c[nH]c2ccccc12)C(=O)N[C@@H](Cc1c[nH]c2ccccc12)C(N)=O` (Stearoyl-Arg-Trp-Trp-NH2), the MIC (Staphylococcus aureus [1]) was over 128 µM, the MIC (Staphylococcus aureus [2]) was over 128 µM and the MIC [3] was 128 µM (≈ 104 µg/mL). For the same compound, the MIC (Staphylococcus aureus [4]) was over 128 µM, the selectivity ratio [6] was 1.09 and the MIC (Bacillus subtilis) was over 128 µM. For the same compound, the MHC10 (Erythrocyte) was 256 µM and the MIC (Staphylococcus aureus [5]) was over 128 µM.
`CCCCCCCCCCCCCC(=O)N[C@@H](Cc1c[nH]c2ccccc12)C(=O)N[C@@H](CCCNC(=N)N)C(=O)N[C@@H](CCCNC(=N)N)C(N)=O` (Myristoyl-Trp-Arg-Arg-NH2) gave an MIC (Staphylococcus aureus [1]) of 8 µM (≈ 5.81 µg/mL), an MIC (Staphylococcus aureus [2]) of 2 µM (≈ 1.45 µg/mL) and an MIC [3] of 4 µM (≈ 2.9 µg/mL). The MIC (Staphylococcus aureus [4]) was 2 µM (≈ 1.45 µg/mL), the selectivity ratio [6] was 13.7 and the MIC (Bacillus subtilis) was 4 µM (≈ 2.9 µg/mL). It also gave an MHC10 (Erythrocyte) of 64 µM and an MIC (Staphylococcus aureus [5]) of 8 µM (≈ 5.81 µg/mL).
`CCCCCCCC(=O)N[C@@H](CCCNC(=N)N)C(=O)N[C@@H](CCCNC(=N)N)C(=O)N[C@@H](Cc1c[nH]c2ccccc12)C(N)=O` (Octanoyl-Arg-Arg-Trp-NH2) showed an MIC (Staphylococcus aureus [1]) of 64 µM (≈ 41.1 µg/mL), an MIC (Staphylococcus aureus [2]) of 128 µM (≈ 82.2 µg/mL) and an MIC [3] of 64 µM (≈ 41.1 µg/mL). For the same compound, the MIC (Staphylococcus aureus [4]) was 64 µM (≈ 41.1 µg/mL), the selectivity ratio [6] was 7.38 and the MIC (Bacillus subtilis) was 32 µM (≈ 20.5 µg/mL). The MHC10 (Erythrocyte) was over 256 µM and the MIC (Staphylococcus aureus [5]) was 64 µM (≈ 41.1 µg/mL).
In the case of `CCCCCCCCCCCCCC(=O)N[C@@H](CCCNC(=N)N)C(=O)N[C@@H](CCCNC(=N)N)C(=O)N[C@@H](CCCNC(=N)N)C(N)=O` (Myristoyl-Arg-Arg-Arg-NH2), the MIC (Staphylococcus aureus [1]) is reported as 64 µM (≈ 44.5 µg/mL), the MIC (Staphylococcus aureus [2]) is reported as 8 µM (≈ 5.57 µg/mL) and the MIC [3] is reported as 8 µM (≈ 5.57 µg/mL). The MIC (Staphylococcus aureus [4]) was 8 µM (≈ 5.57 µg/mL), the selectivity ratio [6] was 6.86 and the MIC (Bacillus subtilis) was 8 µM (≈ 5.57 µg/mL). It also gave an MHC10 (Erythrocyte) of 128 µM and an MIC (Staphylococcus aureus [5]) of 16 µM (≈ 11.1 µg/mL).
Compound `CCCCCCCCCCCCCCCCCC(=O)N[C@@H](CCCNC(=N)N)C(=O)N[C@@H](CCCNC(=N)N)C(=O)N[C@@H](Cc1c[nH]c2ccccc12)C(N)=O` (Stearoyl-Arg-Arg-Trp-NH2) has an MIC (Staphylococcus aureus [1]) of 8 µM (≈ 6.26 µg/mL), an MIC (Staphylococcus aureus [2]) of 8 µM (≈ 6.26 µg/mL) and an MIC [3] of 4 µM (≈ 3.13 µg/mL). It also gave an MIC (Staphylococcus aureus [4]) of 16 µM (≈ 12.5 µg/mL), a selectivity ratio [6] of 3.69 and an MIC (Bacillus subtilis) of 8 µM (≈ 6.26 µg/mL). The MHC10 (Erythrocyte) was 32 µM and the MIC (Staphylococcus aureus [5]) was 8 µM (≈ 6.26 µg/mL).
Compound `CCCCCCCC(=O)N[C@@H](CCCNC(=N)N)C(=O)N[C@@H](CCCNC(=N)N)C(=O)N[C@@H](CCCNC(=N)N)C(N)=O` (Octanoyl-Arg-Arg-Arg-NH2) has an MIC (Staphylococcus aureus [1]) of over 128 µM, an MIC (Staphylococcus aureus [2]) of over 128 µM and an MIC [3] of over 128 µM. For the same compound, the MIC (Staphylococcus aureus [4]) was over 128 µM, the MIC (Bacillus subtilis) was over 128 µM and the MHC10 (Erythrocyte) was over 256 µM. The MIC (Staphylococcus aureus [5]) was over 128 µM.
